Structures can show the parent of a compound that is named as a salt.

A word on the melting point: it is the temperature, or range, at which the solid turns liquid. Regarding `Cn1nc(N)c2c(Nc3ccc(F)cc3)nc3ccccc3c21` (as salt: salt) [Compound 4, 4-(4-Fluoroanilino)-1-methyl-1H-pyrazolo[4,3-c]quinolin-3-amine], the melting point was in the range of 218 to 219 °C.
Under `Cc1ccc(Nc2nc3ccccc3c3c2c(N)nn3C)cc1` (as salt: salt) [Compound 18, 4-(4-Methylanilino)-1-methyl-1H-pyrazolo[4,3-c]quinolin-3-amine] stands 253 to 255 °C; under `CSc1ccc(Nc2nc3ccccc3c3c2c(N)nn3C)cc1` (as salt: salt) [Compound 9, 1-Methyl-4-(4-methylthioanilino)-1H-pyrazolo[4,3-c]quinolin-3-amine], 233 to 235 °C.
Under `Cn1nc(N)c2c(Nc3ccccc3O)nc3ccccc3c21` (as salt: salt) [Compound 11, 4-(2-Hydroxyanilino)-1-methyl-1H-pyrazolo[4,3-c]quinolin-3-amine] stands 233 to 235 °C.
For `Cn1nc(N)c2c(Nc3ccccc3S)nc3ccccc3c21` (as salt: salt) [Compound 16, 2-[(3-amino-1-methyl-1H-pyrazolo[4,3-c]quinolin-4-yl)amino]benzenethiol] the value was 235 to 236 °C; for `Cn1nc(N)c2c(Nc3ccc(C(=O)O)cc3)nc3ccccc3c21` (as salt: salt) [Compound 15, 4-[(3-Amino-1-methyl-1H-pyrazolo[4,3-c]quinolin-4-yl)amino]benzoic acid], 325 to 326 °C; for `CSc1ccc(Nc2nc3ccccc3c3onc(N)c23)cc1` (as salt: salt) [Compound 25, 4-(4-Methylthioanilino)isoxazolo[4,5-c]quinolin-3-amine], 246 to 247 °C.
`COc1ccccc1Nc1nc2ccccc2c2onc(N)c12` (as salt: salt) [Compound 21, 4-(2-Methoxyanilino)isoxazolo[4,5-c]quinolin-3-amine] displayed a melting point of 261 to 262 °C.
For `COc1ccccc1Nc1nc2ccccc2c2c1c(N)nn2C` [Compound 5, 4-(2-Methoxyanilino)-1-methyl-1H-pyrazolo[4,3-c]quinolin-3-amine] the value was 229 to 230 °C; for `Cn1nc(N)c2c(Nc3cccc(O)c3)nc3ccccc3c21` (as salt: salt) [Compound 12, 4-(3-Hydroxyanilino)-1-methyl-1H-pyrazolo[4,3-c]quinolin-3-amine], 190 to 191 °C; for `COc1cccc(Nc2nc3ccccc3c3c2c(N)nn3C)c1` (as salt: salt) [Compound 6, 4-(3-Methoxyanilino)-1-methyl-1H-pyrazolo[4,3-c]quinolin-3-amine], 284 to 286 °C.
Molecule `Cn1nc(N)c2c(Nc3ccc(C(F)(F)F)cc3)nc3ccccc3c21` (as salt: salt) [Compound 14, 4-(4-Trifluoromethylanilino)-1-methyl-1H-pyrazolo[4,3-c]quinolin-3-amine] displayed a melting point of 219 to 220 °C.
For `COc1ccc(Nc2nc3ccccc3c3c2c(N)nn3C)cc1` (as salt: salt) [Compound 7, 4-(4-Methoxyanilino)-1-methyl-1H-pyrazolo[4,3-c]quinolin-3-amine] the value was 193 to 194 °C; for `COc1ccc(Nc2nc3ccccc3c3onc(N)c23)cc1` (as salt: salt) [Compound 23, 4-(4-Methoxyanilino)isoxazolo[4,5-c]quinolin-3-amine], 257 to 259 °C.
Under `Cc1ccc(Nc2nc3ccccc3c3onc(N)c23)cc1` (as salt: salt) [Compound 33, 4-(4-Methylanilino)isoxazolo[4,5-c]quinolin-3-amine] stands 173 to 175 °C.
Under `Cn1nc(N)c2c(Nc3ccc(O)cc3)nc3ccccc3c21` (as salt: salt) [Compound 13, 4-(4-Hydroxyanilino)-1-methyl-1H-pyrazolo[4,3-c]quinolin-3-amine] stands 320 to 322 °C.
The molecule `Nc1noc2c1c(Nc1ccccc1)nc1ccccc12` (as salt: salt) [Compound 19, 4-Anilinoisoxazolo[4,5-c]quinolin-3-amine] had a melting point of 266 to 267 °C.
For `CC(=O)c1ccc(Nc2nc3ccccc3c3c2c(N)nn3C)cc1` [Compound 10, 4-(4-Acetoylanilino)-1-methyl-1H-pyrazolo[4,3-c]quinolin-3-amine] the value was 272 to 274 °C; for `COc1cc(Nc2nc3ccccc3c3onc(N)c23)cc(OC)c1OC` (as salt: salt) [Compound 24, 4-(3,4,5-Trimethoxyanilino)isoxazolo[4,5-c]quinolin-3-amine], 264 to 266 °C.
For `Nc1noc2c1c(Nc1ccc(O)cc1)nc1ccccc12` (as salt: salt) [Compound 29, 4-(4-Hydroxyanilino)isoxazolo[4,5-c]quinolin-3-amine] the value was 236 to 237 °C; for `Nc1noc2c1c(Nc1ccc(C(F)(F)F)cc1)nc1ccccc12` (as salt: salt) [Compound 30, 4-(4-Trifluoromethylanilino)isoxazolo[4,5-c]quinolin-3-amine], 227 to 229 °C.
For `Nc1noc2c1c(Nc1ccc(F)cc1)nc1ccccc12` (as salt: salt) [Compound 20, 4-(4-Fluoroanilino)isoxazolo[4,5-c]quinolin-3-amine] the value was 271 to 272 °C; for `Cn1nc(N)c2c(Nc3ccc(Cl)cc3)nc3ccccc3c21` (as salt: salt) [Compound 17, 4-(4-Chloroanilino)-1-methyl-1H-pyrazolo[4,3-c]quinolin-3-amine], 281 to 282 °C; for `Nc1noc2c1c(Nc1ccc(C(=O)O)cc1)nc1ccccc12` (as salt: salt) [Compound 31, 4-[(3-aminoisoxazolo[4,5-c]quinolin-4-yl)amino]benzoic acid], 308 to 310 °C.
The molecule `Nc1noc2c1c(Nc1ccccc1O)nc1ccccc12` (as salt: salt) [Compound 28, 4-(2-Hydroxyanilino)isoxazolo[4,5-c]quinolin-3-amine] showed a melting point of 240 to 241 °C.
Regarding `CC(=O)c1cccc(Nc2nc3ccccc3c3onc(N)c23)c1` (as salt: salt) [Compound 26, 4-(3-Acetoylanilino)isoxazolo[4,5-c]quinolin-3-amine], the melting point lay in the range of 249 to 250 °C.
For `COc1cc(Nc2nc3ccccc3c3c2c(N)nn3C)cc(OC)c1OC` (as salt: salt) [Compound 8, 4-(3,4,5-Trimethoxyanilino)-1-methyl-1H-pyrazolo[4,3-c]quinolin-3-amine] the value was 219 to 220 °C; for `Nc1noc2c1c(Nc1ccc(Cl)cc1)nc1ccccc12` (as salt: salt) [Compound 32, 4-(4-Chloroanilino)isoxazolo[4,5-c]quinolin-3-amine], 268 to 269 °C; for `CC(=O)c1ccc(Nc2nc3ccccc3c3onc(N)c23)cc1` (as salt: salt) [Compound 27, 4-(4-Acetoylanilino)isoxazolo[4,5-c]quinolin-3-amine], 255 to 257 °C.
Under `COc1cccc(Nc2nc3ccccc3c3onc(N)c23)c1` (as salt: salt) [Compound 22, 4-(3-Methoxyanilino)isoxazolo[4,5-c]quinolin-3-amine] stands 262 to 263 °C.
